We go through nine compounds from PubChem BioAssay (NCI).

Among the test systems are KM12 colon; A549 NSCLC; NCI-H522 lung; A498 renal; SF-295 CNS; SN12C renal; MALME-3M melanoma; IGROV1 ovarian; HOP-62 NSCLC; EKVX NSCLC.
Common to all, as to assay: DTP human tumour cell line panel, 48 h

Each structure is given as a SMILES string. Several values for one entry are separate records, joined by “and”; a condition that tells them apart may be missing. Identical values can stand only once.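 Values below derive from 48-hour exposures of cells grown in 96-well plates, with endpoints linearly interpolated between the two concentrations bracketing the appropriate inhibition level. At the GI50, growth is halved. TGI denotes the concentration required for complete inhibition of growth.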 Where a SMILES comes first, the peptide text is derived from it. [ ]: non-standard residue; d: D form. The star is where a group is joined. ξ: configuration not given here. X16 = COC1=CC(=O)N(C(=O)C(O*)C(C)C)C1Cc1ccccc1; ξNMe2Val = CC(C)C(C(=O)*)N(C)C; NMeV = CN[CH](C(=O)O)C(C)C

What is called TGI is the concentration at which net growth stops. A higher TGI goes with lower sensitivity of the cells. For the compound `Nc1cc2c(cc1[N+](=O)[O-])[nH]c1c(-c3ccccc3)nccc12`, the TGI in the assay with KM12 colon is 35.2 µM; in the assay with A549 NSCLC, 69.6 µM; in the assay with NCI-H522 lung, 27.5 µM; with A498 renal it was 79.7 µM; in the assay on SF-295 CNS it was 53.4 µM; with SN12C renal it was greater than 100 µM. For the same compound, the TGI in the assay on MALME-3M melanoma was 52.1 µM; in the assay with IGROV1 ovarian it was 35.9 µM; in the assay with HOP-62 NSCLC it was 41.4 µM; in the assay with EKVX NSCLC it was greater than 80.5 µM.

For orientation: GI50 means the concentration at which growth is held to half of that of the control. Regarding `COC1=CC(=O)N(C(=O)C(OC(=O)C2CCCN2C(=O)C2CCCN2C(=O)C(C(C)C)N(C)C(=O)C(NC(=O)C(C(C)C)N(C)C)C(C)C)C(C)C)C1Cc1ccccc1` (stereo unspecified) (ξNMe2Val-V[NMeV]PP-X16; configuration not given here), the GI50 in the assay on KM12 colon is less than 0.0004 µM; in the assay with A549 NSCLC it was 0.00715 µM; in the assay on A498 renal it was 0.00643 µM; in the assay with SF-295 CNS, less than 0.0004 µM; in the assay on SN12C renal, less than 0.0004 µM; in the assay with MALME-3M melanoma, less than 0.0004 µM. The GI50 with IGROV1 ovarian is less than 0.0004 µM; in the assay with HOP-62 NSCLC, 0.00241 µM. For the same compound, the TGI in the assay with KM12 colon was greater than 4 µM; in the assay with A549 NSCLC it was greater than 4 µM; in the assay on NCI-H522 lung, 0.00182 µM; in the assay on A498 renal it was 0.165 µM; in the assay on SF-295 CNS it was 0.0074 µM and 0.00436 µM; in the assay on MALME-3M melanoma it was greater than 4 µM. In addition, the TGI was greater than 4 µM in the assay on IGROV1 ovarian, greater than 4 µM with HOP-62 NSCLC and 3.95 µM in the assay with EKVX NSCLC.

Take `CC1(C)CCc2c(cc3c(c2O)CCC(C)(C)O3)O1`: the concentration for total growth inhibition (TGI) with KM12 colon, with A549 NSCLC, in the assay on NCI-H522 lung, in the assay with A498 renal, in the assay on SF-295 CNS and in the assay on SN12C renal was greater than 100 µM in each case. Moreover, the TGI in the assay with MALME-3M melanoma, with IGROV1 ovarian, in the assay on HOP-62 NSCLC and in the assay on EKVX NSCLC was greater than 100 µM each time.

Turning to `CCOc1ncn(-c2ccc(NC(=S)Nc3cccc(O)c3)cc2)n1`, the concentration for total growth inhibition (TGI) in the assay with KM12 colon, with A549 NSCLC, with NCI-H522 lung, in the assay on SF-295 CNS, in the assay on SN12C renal and with IGROV1 ovarian was greater than 100 µM each time. Besides, the TGI with HOP-62 NSCLC and in the assay with EKVX NSCLC was greater than 100 µM each time.

`ClCCN(CCCl)Cc1ccc(Nc2ccnc3cc(Cl)ccc23)cc1`: the GI50 with KM12 colon is 2.07 µM; in the assay with A549 NSCLC, 1.11 µM; in the assay on SF-295 CNS, 2.08 µM; with SN12C renal, 0.48 µM; in the assay with HOP-62 NSCLC, 1.34 µM. In addition, the TGI in the assay on KM12 colon is 5.57 µM; in the assay on A549 NSCLC, 5.08 µM; in the assay with SF-295 CNS it was 6.98 µM; in the assay with SN12C renal, 4.02 µM; with HOP-62 NSCLC it was 5.16 µM.

Turning to `COc1ccc2c(O)c3[n+](cc2c1OC)CCc1cc2c(cc1-3)OCO2`, the TGI in the assay with KM12 colon is greater than 100 µM; in the assay with A549 NSCLC it was greater than 100 µM; with NCI-H522 lung, 46 µM; in the assay with A498 renal, greater than 100 µM; in the assay with SF-295 CNS it was greater than 100 µM; in the assay with SN12C renal, greater than 100 µM. Besides, the concentration for total growth inhibition (TGI) with IGROV1 ovarian, in the assay on HOP-62 NSCLC and in the assay with EKVX NSCLC was greater than 100 µM each time.

For `C=C/C(C)=C/[C@H](C)C(=O)C[C@H](O)CC1CC(=O)NC(=O)C1`, the total growth inhibition concentration (TGI) in the assay on KM12 colon was greater than 100 µM; with A549 NSCLC, greater than 100 µM; in the assay on NCI-H522 lung it was greater than 87.8 µM; with A498 renal, greater than 100 µM; in the assay on SF-295 CNS it was greater than 100 µM; with SN12C renal it was greater than 100 µM. In addition, the total growth inhibition concentration (TGI) in the assay on MALME-3M melanoma is greater than 100 µM; with IGROV1 ovarian it was greater than 86.7 µM; in the assay with HOP-62 NSCLC, greater than 91.1 µM; with EKVX NSCLC, greater than 100 µM.

Take `Cc1ccc(OP2(=O)Oc3ccc4ccccc4c3CN2c2ccc(Cl)cc2)cc1C` (stereo unspecified): the TGI with KM12 colon, with A549 NSCLC, in the assay on NCI-H522 lung, in the assay on A498 renal, in the assay with SF-295 CNS and in the assay with SN12C renal was greater than 100 µM in each case. The total growth inhibition concentration (TGI) with MALME-3M melanoma, with IGROV1 ovarian, in the assay on HOP-62 NSCLC and in the assay with EKVX NSCLC was greater than 100 µM each time.

For `COC[C@H]1C(=O)NCC(=O)N2NCCC[C@H]2C(=O)N(O)[C@H](C)C(=O)O[C@@H](C(C)C)[C@H](NC(=O)[C@](C)(O)[C@]2(O)CC[C@@H](CC(C)C)[C@H](C)O2)C(=O)N2NCCC[C@@H]2C(=O)N1O`, the GI50 with KM12 colon is 0.01 µM; with A549 NSCLC it was less than 0.0128 µM; with NCI-H522 lung it was 0.0171 µM; with SN12C renal, less than 0.0126 µM; in the assay on MALME-3M melanoma, 0.0142 µM; in the assay with HOP-62 NSCLC it was less than 0.01 µM. Further, the TGI in the assay with KM12 colon was 0.0241 µM; in the assay with A549 NSCLC it was 0.028 µM; in the assay with NCI-H522 lung, 0.0377 µM; with SN12C renal, 0.0411 µM; in the assay with MALME-3M melanoma it was 0.0291 µM; in the assay with HOP-62 NSCLC, 0.0149 µM.
